Tests used:
Type in all cases: in vivo
[1] = tested on: Musca domestica Linnaeus adult houseflies; assay: Needle inoculum (direct application) on adult flies
Description: (§1) The Solution may be poured into a container having a spray nozzle or provided in an aerosol container. Alternatively, the Solution may be poured into an open container for direct contact. The Solution may be poured directly onto pupa or sprayed. Several experiments were performed on Musca domestica Linnaeus adult houseflies, pupa, and larva using varying dilutions, concentrations, and combinations of components, along with a dihydrogen monoxide control to compare the effectiveness and potency of each composition for quickly killing adult flies, pupa, and larva. […] During experimentation, a needle inoculum (syringe) having a modified composition for adult flies, a spray inoculum having the modified composition for adult flies, and a dihydrogen monoxide control for adult flies were conducted. References to “needle inoculum” refers to directly applying the modified composition to the adult flies.

[2] = tested on: Musca domestica Linnaeus house fly; assay: Fly killing, general statements (application not specified); conditions: for independent house fly adulticidal properties of the individual component: individual formula component
Source text: The concentrations, formulas, and composition noted herein have been evaluated and tested for optimal effect against adult houseflies and pupa. Altering the preferred concentrations would decrease the effectiveness of the inventive Solution, leading to longer a time period before the flies and/or pupa are killed. The Solution may be poured into a container having a spray nozzle or provided in an aerosol container. Alternatively, the Solution may be poured into an open container for direct contact. The Solution may be poured directly onto pupa or sprayed. Several experiments were performed on Musca domestica Linnaeus adult houseflies, pupa, and larva using varying dilutions, concentrations, and combinations of components, along with a dihydrogen monoxide control to compare the effectiveness and potency of each composition for quickly killing adult flies, pupa, and larva. […] These minimal moments of delay between contact and expiration prevents the fly from falling and immediately dying in an undesired location, for example, on a food surface. […] The user can either wait for the fly to die solely from the spray, or, alternatively, the user can implement using the spray as one of the first steps for disabling the fly before immediately killing the fly with either more application of the sprayable composition or with another aid, for example, a fly swatter.
The invention, when sprayed on fly pupa, prevents the pupa from hatching. The preferred type of fly and fly pupa that are effectively killed by this Solution are Musca domestica Linnaeus houseflies. Because the composition (or Solution) is nontoxic, nonabrasive, and ingestible for humans, the Solution can be sprayed or applied directly to a surface, including food. Various experiments were conducted to evaluate the efficacy of each component used in the Solution.

[3] = tested on: Musca domestica Linnaeus adult houseflies; assay: Spray inoculum on adult flies; conditions: 75° F.
Description: as §1

[4] = FIG. 30, 50% dilution, same temperature (75° F.)
[5] = FIG. 30, needle inoculum as printed, 0% dilution of 10 mg/mL, 75° F.
[6] = needle inoculum, 0% (no) dilution, 75° F., time in E2/E3
[7] = needle inoculum, 50% dilution with water, 75° F.
[8] = needle inoculum, 50% dilution with water, 75° F., time in E5/E6
[9] = needle inoculum, 75% dilution with water, 75° F.
[10] = needle inoculum, 90% dilution with water, 75° F.
[11] = 50% dilution with water, time in E36/E37
[12] = printed 50% dilution, in the figure of the 75% dilution experiment
[13] = needle inoculum, 75% dilution with water, 75° F., 30 minutes
[14] = needle inoculum, 90% dilution with water, 75° F., 30 minutes
[15] = 90% dilution with water, 30 minutes
[16] = needle inoculum, no (0%) dilution, 75° F.

SMILES: CCCCC(CC)COC(=O)CC(C(=O)OCC(CC)CCCC)S(=O)(=O)[O-].[Na+] (centres unmarked) [dioctyl sodium sulfosuccinate]
- deaths of adult flies [1, 4]: 10 out of 10
- time within which the deaths occurred [1, 4]: ≤ 46 s
- deaths of adult flies ([1]; FIG. 30, 90% dilution): 10 out of 10
- time within which the deaths occurred ([1]; FIG. 30, 90% dilution): ≤ 188 s
- deaths of adult flies [1, 5]: 10 out of 10
- time within which the deaths occurred [1, 5]: ≤ 36 s
- time within which flies are immobilized and collapse ([2]; flies): 30 to 60 s

SMILES: CCCCC(CC)COC(=O)CC(C(=O)OCC(CC)CCCC)S(=O)(=O)[O-].[Na+] (centres unmarked) [docusate, docusate sodium]
- deaths of adult flies [1, 6]: 10 out of 10
- time within which the deaths occurred ([1]; needle inoculum, 0% dilution, 75° F.): ≤ 48 s
- time within which the deaths occurred [1, 7]: ≤ 56 s
- deaths of adult flies [1, 8]: 10 out of 10
- time within which the deaths occurred [1, 9]: ≤ 126 s
- deaths of adult flies ([1]; needle inoculum, 75% dilution with water, 75° F., time in E8/E9): 10 out of 10
- time within which the deaths occurred [1, 10]: ≤ 121 s
- deaths of adult flies ([1]; needle inoculum, 90% dilution with water, 75° F., time in E11): 10 out of 10
- deaths of adult flies ([1]; needle inoculum, 95% dilution with water, 75° F., time in E13): 10 out of 10
- deaths of adult flies ([1]; needle inoculum, 99% dilution with water, 75° F., time in E15): 10 out of 10
- time within which the deaths occurred ([3]; 50% dilution with water): ≤ 43 s
- deaths of adult flies [3, 11]: 10 out of 10
- time within which the deaths occurred ([3]; 90% dilution with water): ≤ 143 s
- deaths of adult flies ([3]; 90% dilution with water, time in E42/E43): 10 out of 10
- deaths of adult flies ([3]; 95% dilution with water, time in E45): 10 out of 10
- deaths of adult flies ([3]; 99% dilution with water, time in E47): 10 out of 10
- time within which the deaths occurred ([3]; no dilution): ≤ 68 s
- deaths of adult flies ([3]; no dilution, time in E33/E34): 10 out of 10
- time within which the deaths occurred [3, 12]: ≤ 89 s
- deaths of adult flies ([3]; printed 50% dilution, in the figure of the 75% dilution experiment, time in E39/E40): 10 out of 10
- independent house fly adulticidal properties of the individual component [2]: exhibit varying house fly adulticidal properties

SMILES: CCO [ethyl alcohol]
- deaths of adult flies [1, 6]: 10 out of 10
- flight ability during the observation time [1, 7]: incapable of flight
- deaths of adult flies [1, 8]: 10 out of 10
- flight ability during the observation time [1, 13]: incapable of flight
- deaths of adult flies within 30 minutes [1, 9]: 1 out of 10
- flight ability during the observation time [1, 14]: incapable of flight
- deaths of adult flies within 30 minutes [1, 10]: 0 out of 10
- deaths of adult flies [3, 11]: 10 out of 10
- flight ability during the observation time ([3]; 75% dilution with water, 30 minutes): incapable of flight
- deaths of adult flies within 30 minutes ([3]; 75% dilution with water): 4 out of 10
- flight ability during the observation time [3, 15]: incapable of flight
- deaths of adult flies within 30 minutes ([3]; 90% dilution with water): 1 out of 10
- flight ability during the observation time ([3]; no dilution): incapable of flight
- deaths of adult flies ([3]; no dilution, time in E33/E34): 10 out of 10

SMILES: OCC(O)CO [glycerin]
- flight ability during the observation time [1, 7]: incapable of flight
- deaths of adult flies within 30 minutes [1, 7]: 5 out of 10
- flight ability during the observation time [1, 13]: incapable of flight
- deaths of adult flies within 30 minutes [1, 9]: 4 out of 10
- flight ability during the observation time [1, 14]: incapable of flight
- deaths of adult flies within 30 minutes [1, 10]: 2 out of 10
- flight ability during the observation time [1, 16]: incapable of flight
- deaths of adult flies within 30 minutes [1, 16]: 0 out of 10
- flight ability during the observation time ([3]; 50% dilution, 30 minutes): incapable of flight
- deaths of adult flies within 30 minutes ([3]; 50% dilution): 6 out of 10
- flight ability during the observation time [3, 15]: incapable of flight
- deaths of adult flies within 30 minutes ([3]; 90% dilution with water): 7 out of 10
- flight ability during the observation time ([3]; no dilution): incapable of flight
- deaths of adult flies within 30 minutes ([3]; no dilution): 0 out of 10
- flight ability during the observation time ([3]; printed 50% dilution, in the figure of the 75% dilution experiment, 30 minutes): incapable of flight
- deaths of adult flies within 30 minutes [3, 12]: 6 out of 10
- independent house fly adulticidal properties of the individual component [2]: exhibit varying house fly adulticidal properties

Reference: patent publication US11058113B1, “Fly and pupa insecticide” (Fly's Water, LLC, priority 2018, dated 2021)
